Results on 1 molecule are retold here after patent US9908926B2, “Protein-based molecular temperature switch” (ARIZONA BOARD OF REGENTS ON BEHALF OF ARIZONA STATE …, priority 2014, dated 2018).

One assay addresses TRPM8 protein domain (Homo sapiens, UniProt Q7Z2W7). Kind of assay: Activation of TRPM8 by menthol (shift of activation curve). In kind it is biochemical. The following applies: FIG. 5. The source says: FIG. 3 illustrates the regulation of the ion channel via cold temperature change to an open channel within the protein membrane. The TRPM8 protein domain is weakly voltage-dependant and polymodal in that it can be activated with more than one agonist.

The test system of assay [1] is human bladder cancer cell lines. Conditions: cited from earlier work.

Molecules are shown by their SMILES.

Sequence of TRPM8 protein domain (Q7Z2W7 whole entry, the tested form may be a part): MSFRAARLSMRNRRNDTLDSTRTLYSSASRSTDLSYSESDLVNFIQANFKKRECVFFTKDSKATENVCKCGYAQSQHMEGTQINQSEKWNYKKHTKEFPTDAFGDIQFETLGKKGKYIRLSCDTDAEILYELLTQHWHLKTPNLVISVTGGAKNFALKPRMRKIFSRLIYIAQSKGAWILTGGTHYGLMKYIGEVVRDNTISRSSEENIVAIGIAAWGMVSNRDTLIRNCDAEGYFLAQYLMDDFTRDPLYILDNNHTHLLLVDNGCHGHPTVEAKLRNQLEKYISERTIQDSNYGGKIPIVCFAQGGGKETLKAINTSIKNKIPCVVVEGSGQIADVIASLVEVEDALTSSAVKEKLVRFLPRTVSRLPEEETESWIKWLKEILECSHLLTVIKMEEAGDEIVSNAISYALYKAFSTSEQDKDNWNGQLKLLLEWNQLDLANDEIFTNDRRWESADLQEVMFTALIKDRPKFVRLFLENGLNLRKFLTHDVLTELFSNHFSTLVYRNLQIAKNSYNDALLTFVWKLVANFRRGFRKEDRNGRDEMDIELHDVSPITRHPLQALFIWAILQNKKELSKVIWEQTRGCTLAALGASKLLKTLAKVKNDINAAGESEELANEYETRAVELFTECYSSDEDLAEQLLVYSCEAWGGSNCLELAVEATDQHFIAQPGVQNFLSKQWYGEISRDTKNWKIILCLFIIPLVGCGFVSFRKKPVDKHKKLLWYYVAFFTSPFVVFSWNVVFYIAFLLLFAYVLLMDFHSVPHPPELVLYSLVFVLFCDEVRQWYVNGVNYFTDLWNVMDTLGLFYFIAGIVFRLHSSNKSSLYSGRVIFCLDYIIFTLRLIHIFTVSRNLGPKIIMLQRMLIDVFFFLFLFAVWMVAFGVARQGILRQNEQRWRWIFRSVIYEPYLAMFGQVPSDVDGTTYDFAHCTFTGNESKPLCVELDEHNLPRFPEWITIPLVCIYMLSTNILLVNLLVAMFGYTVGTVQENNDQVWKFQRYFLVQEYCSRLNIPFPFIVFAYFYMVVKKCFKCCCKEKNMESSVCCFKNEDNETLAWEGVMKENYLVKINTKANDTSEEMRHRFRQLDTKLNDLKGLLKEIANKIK

As to `CC1CCC(C(C)C)C(O)C1` (centres unmarked) [menthol], the “activation of the TRPM8 protein domain” value on TRPM8 protein domain is listed as “activates the TRPM8 protein domain by shifting the activation curve”. Moreover, the cell death entry in assay [1] was “induces cell death in human bladder cancer cell lines”.
